Test results reported in patent US20260209242A1, “CAMPTOTHECIN DERIVATIVE, PHARMACEUTICAL COMPOSITION, AND PREPARATION METHOD AND USE THEREFOR” (priority 2022, published 2026).
Read-outs that look alike come from different tables or passages of the source.

Key:
Type in all cases: cell-based
[1] = test system: SK-BR-3; assay: Inhibition of proliferation of cells SK-BR-3 (CelltiterGlo, 72 h)
Experimental: (§1) • (1) Cell plating: first, tumor cells SK-BR-3 were cultured using a corresponding culture medium, trypsinized, centrifuged, resuspended for counting, adjusted to an appropriate concentration, and then plated on a 384-well plate. • (2) Co-incubation of the compounds and tumor cells: after the cells adhered to the wall, 100 nL of a diluted bioactive substance (test compound) was added to the cell culture plate using ECHO, the final concentration of DMSO in wells of the cell plate was 0.33%, and the incubation was performed in an incubator at 37° C. with 5% CO2 for 72 h. • (3) After the incubation was complete, 30 μL of a CTG reagent (CelltiterGlo kit) was added to each well. The culture was oscillated on a fast oscillator for 2 min, centrifuged at 1,000 rpm for 1 min, and kept away from light at room temperature for 30 min. The chemiluminescence signal value was read using an Envision instrument. • (4) Cell viability detection: IC50 was calculated using GraphPad Prism 8 software, and the IC50 of the compounds was obtained using the following nonlinear fitting formula (see Table 1):
[formula] • Y: inhibition rate; X: log value of compound concentration-,
(§2) [formula] • high-reading control wells: cells with addition of 100 nL DMSO; and • low-reading control wells: cell-free wells.

[2] = test system: MDA-MB-468; assay: Inhibition of proliferation of cells MDA-MB-468 (CelltiterGlo, 72 h)
Experimental: as §1, with “MDA-MB-468” for “SK-BR-3”, “[…]” for “5%”, “2):” for “1):”
[formula] • Y: inhibition rate: X: log value of compound concentration;
as §2

[3] = test system: NCI-N87; assay: Inhibition of proliferation of cells NCI-N87 (CelltiterGlo, 72 h)
Experimental: as §1, with “NCI-N87” for “SK-BR-3”, “[…]” for “5%”, “3):” for “1):”
[formula] • Y: inhibition rate, X: log value of compound concentration;
as §2

[4] = Homo sapiens, SK-BR-3, 72 h, read-out: IC50 (nM), antiproliferative activity on SK-BR-3, SK-BR-3 cells, 72 h, CTG
[5] = Homo sapiens, MDA-MB-468, 72 h, read-out: IC50 (nM), antiproliferative activity on MDA-MB-468, MDA-MB-468 cells, 72 h, CTG
[6] = Homo sapiens, NCI-N87, 72 h, read-out: IC50 (nM), antiproliferative activity on cells NCI-N87, NCI-N87 cells, 72 h, CTG

Compound | IC50 [1, 4] | IC50 [2, 5] | IC50 [3, 6] | IC50 ([1]; SK-BR-3 cells, 72 h, CTG, read-out: IC50 (nM), antiproliferative activity on SK-BR-3) | IC50 ([2]; MDA-MB-468 cells, 72 h, CTG, read-out: IC50 (nM), antiproliferative activity on MDA-MB-468) | IC50 ([3]; NCI-N87 cells, 72 h, CTG, read-out: IC50 (nM), antiproliferative activity on cells NCI-N87)
CC[C@@]1(O)C(=O)OCc2c1cc1n(c2=O)Cc2c-1nc1cc(F)c(C3CC3)c3c1c2[C@@H](NC(=O)C[C@@H](O)C1CC1)CC3 [Compound 34-2, (R)-3-cyclopropyl-N-((1S,9S)-4-cyclopropyl-9-ethyl-5-fluoro-9-hydroxy-10,13-dioxo-2,3,9,10,13,15-hexahydro-1H,12H-benzo[d]pyrano[3′,4′:6,7]indolizino[1,2-b]quinolin-1-yl)-3-hydroxypropanamide] | 4.8 nM | 4 nM | 6 nM | – | – | –
CC[C@@]1(O)C(=O)OCc2c1cc1n(c2=O)Cc2c-1nc1cc(F)c(C)c3c1c2[C@@H](NC(=O)[C@@H](C)[C@@H](C)O)CCC3 [Compound 39, (2S,3R)—N-((1S,10S)-10-ethyl-6-fluoro-10-hydroxy-5-methyl-11,14-dioxo-1,2,3,4,10,11,14,16-octahydro-13H-cyclohepta[3′,4′:6,7]indolizino[1,2-b]quinolin-1-yl)-3-hydroxy-2-methylbutanamide] | 11 nM | 15 nM | 9.3 nM | – | – | –
(1S,3S)—N-((1R,10S)-5-cyclopropyl-10-ethyl-6-fluoro-10-hydroxy-11,14-dioxo-1,2,3,4,10,11,14,16-octahydro-13H-cyclohepta[de]pyrano[3′,4′:6,7]indolizino[1,2-b]quinolin-1-yl)-3-hydroxybutane-1-carboxamide [Compound 20-1] | – | – | – | 21 nM | 15.6 nM | 26 nM
